Source: US20240132431A1, “METHOD FOR ALKYLATING ACIDIC FUNCTIONAL GROUP” (Chugai Seiyaku Kabushiki Kaisha, priority 2021, published 2024)
Blank lines part the entries; values can stand above or below the compound they belong to.

Target: T1, Bcl-2 protein (Recombinant Human Bcl-2 Protein) (Homo sapiens, UniProt P10415)
T1 construct: purchased Novus NBP2-34889
Assay: Binding evaluation of mixture library compounds to Bcl-2 using AS-MS (affinity selection mass spectrometry)
Conditions: for ASMS ratio (%) n = 1 / ASMS ratio (%) n = 2: ASMS Ratio(%)=(A−C)/B×100; for ASMS ratio (%) n = 1: replicate n = 1; for ASMS ratio (%) n = 2: replicate n = 2
How it was run: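 Bcl-2 binding is scored from LC/MS signal retained with protein through gel-filtration spin columns, normalised to unfiltered and protein-free controls. Incubation: 20 μM protein, […] per compound, 1 h, 23° C.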

[1] = AS-MS, mixture of 1200 compounds, Bcl-2
[2] = AS-MS on the mixture of 1200 library compounds

T1 sequence (P10415 whole entry): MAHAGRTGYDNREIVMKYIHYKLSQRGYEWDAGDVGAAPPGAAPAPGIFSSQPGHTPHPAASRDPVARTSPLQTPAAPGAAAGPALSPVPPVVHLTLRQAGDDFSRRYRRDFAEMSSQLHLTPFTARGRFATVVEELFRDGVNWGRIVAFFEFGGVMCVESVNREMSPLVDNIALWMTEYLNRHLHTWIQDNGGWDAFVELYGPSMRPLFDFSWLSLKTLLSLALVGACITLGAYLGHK

ASMS ratio (%) n = 1 [1]: −1.1% | ASMS ratio (%) n = 2 [1]: −2.4%
Compound: CCOc1cncc(-c2ccc(C(C)N3CCN(c4ccc(C(=O)NCC(F)(F)F)cc4)CC3)cc2)c1 (stereo not drawn) [B1K098-01, 4-[4-[1-[4-(5-Ethoxypyridin-3-yl)phenyl]ethyl]piperazin-1-yl]-N-(2,2,2-trifluoroethyl)benzamide]

ASMS ratio (%) n = 1 [2]: 1.3% | ASMS ratio (%) n = 2 [2]: 4.6%
Compound: CCOc1cncc(-c2cc(CN3CCN(c4ccc(C(=O)Nc5ccc(OC)cc5)cc4)CC3)cc(C(F)(F)F)c2)c1 [B1O062-01, 4-[4-[[3-(5-Ethoxypyridin-3-yl)-5-(trifluoromethyl)phenyl]methyl]piperazin-1-yl]-N-(4-methoxyphenyl)benzamide]

ASMS ratio (%) (n = 1): 0.0% | ASMS ratio (%) (n = 2): 0.0%
Compound: CCOc1cccc(-c2cc(OC)c(CN3CCN(c4ccc(C(=O)NS(=O)(=O)CCC(F)(F)F)cc4)CC3)c(OC)c2)c1 [B2N059-01, 4-[4-[[4-(3-Ethoxyphenyl)-2,6-dimethoxyphenyl]methyl]piperazin-1-yl]-N-(3,3,3-trifluoropropylsulfonyl)benzamide]

ASMS ratio (%) n = 1 [2]: 1.8% | ASMS ratio (%) n = 2 [2]: 0.3%
Compound: CCOc1cncc(-c2cnn(-c3cc(C(=O)N4CCN(c5ccc(C(=O)N(CC)CC)cc5)CC4)cc(C(F)(F)F)c3)c2)c1 [B4J044-01, 4-[4-[3-[4-(5-Ethoxypyridin-3-yl)pyrazol-1-yl]-5-(trifluoromethyl)benzoyl]piperazin-1-yl]-N,N-diethylbenzamide]

ASMS ratio (%) (n = 1): 0.0% | ASMS ratio (%) (n = 2): 0.0%
Compound: CCOc1cncc(-c2ccc(C(C)N3CCN(c4ccc(C(=O)NS(C)(=O)=O)cc4)CC3)c(F)c2)c1 (stereo not drawn) [B2I100-01, 4-[4-[1-[4-(5-Ethoxypyridin-3-yl)-2-fluorophenyl]ethyl]piperazin-1-yl]-N-methylsulfonylbenzamide]

ASMS ratio (%) (n = 1): 0.0% | ASMS ratio (%) (n = 2): 0.0%
Compound: CCOc1cccc(-c2ccccc2CCC(=O)N2CCN(c3ccc(C(=O)NS(=O)(=O)CCC(F)(F)F)nn3)CC2)c1 [B2N011-01, 6-[4-[3-[2-(3-Ethoxyphenyl)phenyl]propanoyl]piperazin-1-yl]-N-(3,3,3-trifluoropropylsulfonyl)pyridazine-3-carboxamide]

ASMS ratio (%) n = 1 [2]: 0.0% | ASMS ratio (%) n = 2 [2]: 0.9%
Compound: CCOc1cncc(-c2cc(C(=O)N3CCN(c4ccc(C(=O)N(CC)CC)nn4)CC3)cc(C(C)(C)C)c2)c1 [B4J016-01, 6-[4-[3-tert-Butyl-5-(5-ethoxypyridin-3-yl)benzoyl]piperazin-1-yl]-N,N-diethylpyridazine-3-carboxamide]

ASMS ratio (%) (n = 1): 0.0% | ASMS ratio (%) (n = 2): 0.0%
Compound: CCOc1cncc(-c2csc(C(=O)N3CCN(c4ccc(C(=O)NS(=O)(=O)CCC(F)(F)F)cc4)CC3)c2)c1 [B2N024-01, 4-[4-[4-(5-Ethoxypyridin-3-yl)thiophene-2-carbonyl]piperazin-1-yl]-N-(3,3,3-trifluoropropylsulfonyl)benzamide]

ASMS ratio (%) n = 1 [1]: 0.0% | ASMS ratio (%) n = 2 [1]: 0.0%
Compound: CCOc1cncc(-c2csc(C(=O)N3CCN(c4ccc(C(=O)NCC(F)(F)F)nn4)CC3)c2)c1 [B1K002-01, 6-[4-[4-(5-Ethoxypyridin-3-yl)thiophene-2-carbonyl]piperazin-1-yl]-N-(2,2,2-trifluoroethyl)pyridazine-3-carboxamide]

ASMS ratio (%) n = 1 [1]: 2.2% | ASMS ratio (%) n = 2 [1]: −0.2%
Compound: CCOc1cncc(-c2cc(CN3CCN(c4ccc(C(=O)NCC(F)(F)F)nn4)CC3)cc(C(F)(F)F)c2)c1 [B1K088-01, 6-[4-[[3-(5-Ethoxypyridin-3-yl)-5-(trifluoromethyl)phenyl]methyl]piperazin-1-yl]-N-(2,2,2-trifluoroethyl)pyridazine-3-carboxamide]

ASMS ratio (%) n = 1 [1]: 5.0% | ASMS ratio (%) n = 2 [1]: −0.1%
Compound: CCOc1cncc(C#Cc2cc(C(=O)N3CCN(c4ccc(C(=O)NCC(F)(F)F)cc4)CC3)cc(C(F)(F)F)c2)c1 [B1K042-01, 4-[4-[3-[2-(5-Ethoxypyridin-3-yl)ethynyl]-5-(trifluoromethyl)benzoyl]piperazin-1-yl]-N-(2,2,2-trifluoroethyl)benzamide]

More lines, now with the values behind:

Compound: CCOc1cccc(-c2cc(C(=O)N3CCN(c4ccc(C(=O)NS(=O)(=O)c5ccc(NCCSc6ccccc6)c([N+](=O)[O-])c5)nn4)CC3)cc(C(F)(F)F)c2)c1 [B2Q017-01, 6-[4-[3-(3-Ethoxyphenyl)-5-(trifluoromethyl)benzoyl]piperazin-1-yl]-N-[3-nitro-4-(2-phenylsulfanylethylamino)phenyl]sulfonylpyridazine-3-carboxamide]
ASMS ratio (%) n = 1 (AS-MS, mixture library, Bcl-2): 12.8% | ASMS ratio (%) n = 2 (AS-MS, mixture library, Bcl-2): 0.2%

Compound: CCOc1cccc(-c2cc(CN3CCN(c4ccc(C(=O)NS(C)(=O)=O)nn4)CC3)cc(OC(C)C)c2)c1 [B2I083-01, 6-[4-[[3-(3-Ethoxyphenyl)-5-propan-2-yloxyphenyl]methyl]piperazin-1-yl]-N-methylsulfonylpyridazine-3-carboxamide]
ASMS ratio (%) (n = 1): 0.0% | ASMS ratio (%) (n = 2): 0.0%

Compound: CCOc1cncc(-c2ccc(C(C)N3CCN(c4ccc(C(=O)NS(=O)(=O)c5ccc(NCCSc6ccccc6)c([N+](=O)[O-])c5)cc4)CC3)c(F)c2)c1 (stereo not drawn) [B2Q100-01, 4-[4-[1-[4-(5-Ethoxypyridin-3-yl)-2-fluorophenyl]ethyl]piperazin-1-yl]-N-[3-nitro-4-(2-phenylsulfanylethylamino)phenyl]sulfonylbenzamide]
ASMS ratio (%) n = 1 (AS-MS, mixture library, Bcl-2): 0.0% | ASMS ratio (%) n = 2 (AS-MS, mixture library, Bcl-2): 10.7%

Compound: CCOc1cncc(-c2ccccc2CN2CCN(c3ccc(C(=O)NCC45CC6CC(CC(C6)C4)C5)cc3)CC2)c1 [B1A046-01, N-(1-Adamantylmethyl)-4-[4-[[2-(5-ethoxypyridin-3-yl)phenyl]methyl]piperazin-1-yl]benzamide]
ASMS ratio (%) n = 1 [1]: 0.0% | ASMS ratio (%) n = 2 [1]: 0.0%

Compound: 4-[4-[4-(3-Ethoxyphenyl)-3-fluorobenzoyl]piperazin-1-yl]-N-propylbenzamide [B1M090-01]
ASMS ratio (%) n = 1 [2]: 0.0% | ASMS ratio (%) n = 2 [2]: 0.0%

Compound: CCOc1cccc(-c2csc(C(=O)N3CCN(c4ccc(C(=O)N(CC)CC)cc4)CC3)c2)c1 [B4J023-01, 4-[4-[4-(3-Ethoxyphenyl)thiophene-2-carbonyl]piperazin-1-yl]-N,N-diethylbenzamide]
ASMS ratio (%) n = 1 [2]: 3.5% | ASMS ratio (%) n = 2 [2]: −3.4%

Compound: CCOc1cccc(-c2ccc(C(=O)N3CCN(c4ccc(C(=O)N(C)CC56CC7CC(CC(C7)C5)C6)cc4)CC3)cc2C)c1 [B3A025-01, N-(1-Adamantylmethyl)-4-[4-[4-(3-ethoxyphenyl)-3-methylbenzoyl]piperazin-1-yl]-N-methylbenzamide]
ASMS ratio (%) n = 1 [2]: 15.7% | ASMS ratio (%) n = 2 [2]: −19.6%

Compound: CCOc1cccc(-c2csc(CN3CCN(c4ccc(C(=O)N(CC)CC)nn4)CC3)c2)c1 [B4J093-01]
ASMS ratio (%) n = 1 (AS-MS, mixture library, Bcl-2): −2.1% | ASMS ratio (%) n = 2 (AS-MS, mixture library, Bcl-2): 0.6%

Compound: CCOc1cccc(-c2ccc(CN3CCN(c4ccc(C(=O)NCC(F)(F)F)nn4)CC3)cc2C)c1 [B1K073-01, 6-[4-[[4-(3-Ethoxyphenyl)-3-methylphenyl]methyl]piperazin-1-yl]-N-(2,2,2-trifluoroethyl)pyridazine-3-carboxamide]
ASMS ratio (%) n = 1 [1]: 3.1% | ASMS ratio (%) n = 2 [1]: −1.9%

Compound: CCOc1cncc(-c2ccc(CN3CCN(c4ccc(C(=O)NCC56CC7CC(CC(C7)C5)C6)cc4)CC3)cc2C)c1 [B1A048-01, N-(1-Adamantylmethyl)-4-[4-[[4-(5-ethoxypyridin-3-yl)-3-methylphenyl]methyl]piperazin-1-yl]benzamide]
ASMS ratio (%) n = 1 [1]: 1.5% | ASMS ratio (%) n = 2 [1]: 3.6%

Compound: CCOc1cccc(-c2cc(CN3CCN(c4ccc(C(=O)NS(=O)(=O)CC56CC7CC(CC(C7)C5)C6)cc4)CC3)cc(OC(C)C)c2)c1 [B2A057-01, N-(1-Adamantylmethylsulfonyl)-4-[4-[[3-(3-ethoxyphenyl)-5-propan-2-yloxyphenyl]methyl]piperazin-1-yl]benzamide]
ASMS ratio (%) n = 1 (AS-MS, mixture library, Bcl-2): −4.8% | ASMS ratio (%) n = 2 (AS-MS, mixture library, Bcl-2): −5.3%

Compound: CCOc1cncc(-c2csc(CN3CCN(c4ccc(C(=O)Nc5ccc(OC)cc5)nn4)CC3)c2)c1 [B1O094-01, 6-[4-[[4-(5-Ethoxypyridin-3-yl)thiophen-2-yl]methyl]piperazin-1-yl]-N-(4-methoxyphenyl)pyridazine-3-carboxamide]
ASMS ratio (%) n = 1 [2]: 2.2% | ASMS ratio (%) n = 2 [2]: −0.7%

Compound: CCOc1cccc(-c2ccccc2CCC(=O)N2CCN(c3ccc(C(=O)N(C)CC45CC6CC(CC(C6)C4)C5)cc3)CC2)c1 [B3A033-01, N-(1-Adamantylmethyl)-4-[4-[3-[2-(3-ethoxyphenyl)phenyl]propanoyl]piperazin-1-yl]-N-methylbenzamide]
ASMS ratio (%) n = 1 [2]: 1.1% | ASMS ratio (%) n = 2 [2]: −0.6%

Compound: CCOc1cccc(-c2ccc(CN3CCN(c4ccc(C(=O)Nc5ccc(OC)cc5)nn4)CC3)c(OC)c2)c1 [B1O079-01, 6-[4-[[4-(3-Ethoxyphenyl)-2-methoxyphenyl]methyl]piperazin-1-yl]-N-(4-methoxyphenyl)pyridazine-3-carboxamide]
ASMS ratio (%) n = 1 [2]: 4.5% | ASMS ratio (%) n = 2 [2]: 1.3%

Compound: CCOc1cncc(-c2cc(OC)c(CN3CCN(c4ccc(C(=O)NS(=O)(=O)c5ccc(NCCSc6ccccc6)c(C(F)(F)F)c5)nn4)CC3)c(OC)c2)c1 [B2R086-01]
ASMS ratio (%) (n = 1): 0.0% | ASMS ratio (%) (n = 2): 0.0%

Compound: CCOc1cccc(-c2ccccc2CN2CCN(c3ccc(C(=O)NCC45CC6CC(CC(C6)C4)C5)nn3)CC2)c1 [B1A071-01, N-(1-Adamantylmethyl)-6-[4-[[2-(3-ethoxyphenyl)phenyl]methyl]piperazin-1-yl]pyridazine-3-carboxamide]
ASMS ratio (%) n = 1 [1]: −0.3% | ASMS ratio (%) n = 2 [1]: −3.3%
